These results are taken from patent publication US20120245344A1 (NIPPON CHEMIPHAR CO., LTD., priority 2009, published 2012).

Entries after “also recorded” stand apart in the source; their conditions may differ.

One series has as its target T1, human GPR119 (Homo sapiens, UniProt Q8TDV5).
T1 construct: expressed in transfected cells; host or cells: Flp-in T-Rex-293 cells (Invitrogen #R78007), plasmid pcDNA5/FRT/TO, expression induced with tetracycline
T1 sequence (Q8TDV5 1-335): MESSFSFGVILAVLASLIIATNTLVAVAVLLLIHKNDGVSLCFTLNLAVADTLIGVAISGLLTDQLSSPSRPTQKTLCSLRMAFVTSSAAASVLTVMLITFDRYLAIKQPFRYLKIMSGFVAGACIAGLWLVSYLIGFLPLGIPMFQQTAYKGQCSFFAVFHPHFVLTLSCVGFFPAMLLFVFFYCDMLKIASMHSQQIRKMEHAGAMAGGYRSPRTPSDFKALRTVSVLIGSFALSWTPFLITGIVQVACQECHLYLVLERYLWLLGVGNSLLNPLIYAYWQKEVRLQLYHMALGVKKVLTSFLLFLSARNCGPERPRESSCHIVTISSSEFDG
Description: Measurement of intracellular cAMP in stable cell line expressing human GPR119 (GPR119 agonist effect). Format: cell-based. The settings on record: increase of intracellular cAMP, Flp-in T-Rex-293 cells expressing human GPR119, 37° C. for 30 minutes.

Series [1] concerns glycemic excursions after glucose administration in normal mice. As to the kind of experiment: Oral glucose tolerance test in normal mice. Format: in vivo, mice (male ICR). How it is done:
In this experiment, the inhibitory effect of an analyte on glycemic excursions is examined after glucose administration in normal mice. The test methods are described below.
Male 9-week-old ICR mice, habituated to the experimental environment for two weeks, are fasted for 18 hours and used to this experiment. Mice are orally administered the analyte or vehicle (polyethylene glycol 400:ethanol:Tween 80=8:1:1). After 30 minutes, they were orally given glucose at the dose of 3 g/kg.
Blood was collected at just before the analyte or vehicle administration (−30 minutes), immediately before glucose challenge (0 minute), 20 minutes, 40 minutes, 60 minutes, and 120 minutes after glucose ingestion to determine blood glucose levels.
Inhibition rate (%) of the analyte versus vehicle in areas under the glycemic excursion curve between 0 and 120 min after glucose challenge is determined.
In this experiment, we examined the inhibitory effect of test compound on glycemic excursions after glucose administration in normal mice. The test methods are shown as follows.
Male 9-week-old ICR mice, habituated to the experimental environment for two weeks, were fasted for 18 hours and used to this experiment. Mice were orally administered the test compound or vehicle (polyethylene glycol 400:ethanol:Tween80=8:1:1), and after 30 minutes, they were orally given glucose at the dose of 3 g/kg.
Blood was collected at just before the test compound or vehicle administration (−30 min), immediately before glucose challenge (0 min), 20 min, 40 min, 60 min and 120 min after glucose ingestion and then blood glucose levels were determined.
Inhibition rate (%) of the test compound versus vehicle in areas under the glycemic excursion curve between 0 and 120 min after glucose challenge was determined.
Except for the dose of test compounds made 1 mg/kg, the examination was performed by the method similar to Example 89 oral glucose tolerance test in normal mice.

In the case of `CC(C)(C)OC(=O)N1CCC(c2ccc(C(=O)N3CCc4cc(S(C)(=O)=O)ccc43)nc2)CC1` [Example 8, tert-Butyl 4-[2-(5-methanesulfonylindoline-1-carbonyl)pyridin-5-yl]piperidine-1-carboxylate], the melting point (usually the temperature, or range, at which the solid turns liquid) was 202 to 205 °C.

The molecule `CC(C)(C)OC(=O)N1CCC(c2ccc(COc3ccc4c(c3)C=CS4(=O)=O)nc2)CC1` [Example 10, tert-Butyl 4-[2-(1,1-dioxo-1H-benzo[b]thiophen-5-yloxymethyl)pyridin-5-yl]piperidine-1-carboxylate] had a melting point of 154 to 157 °C. Also, the response on human GPR119 was half-maximal at 0.353 µM (EC50).

As for `CC(C)OC(=O)N1CCC(c2ccc(Cn3ccc4cc(-n5cnnn5)cc(F)c43)nc2)CC1` [Example 54, Isopropyl 4-[2-[7-fluoro-5-(tetrazol-1-yl)indol-1-ylmethyl]pyridin-5-yl]piperidine-1-carboxylate], the EC50 (commonly the concentration at which the effect is half-maximal) on human GPR119 is 0.0096 µM. In series [1] (1 mg/kg oral, 30 min before glucose 3 g/kg, area under the glycemic excursion curve 0-120 min versus vehicle), the “Inhibition rate (%)” value is on record as 36.0%. Also, the “inhibitory effect on glycemic excursions (in words)” value in series [1] (1 mg/kg, statement in words on Table 15) is given as “excellent inhibitory effect on glycemic excursions; also recorded: excellent inhibitory effect of glycemic excursions”.
